Tests used:
[1] = system: Immortalized human podocytes; assay: Glucose uptake assay in podocytes; format: cell-based
Method: (§1) Immortalized human podocytes were maintained as previously described ([10]). […] Podocytes were lysed as previously described ([21]).
(§2) Glucose uptake assay and On-Cell Western were performed essentially as in Tolvanen et al. ([19]). […] Cells were transferred on ice; incubated with anti-HA IgG in serum-free medium for 15 min, followed by additional incubation in fresh cell differentiation medium for 15 min at +37°C; and fixed with 2% paraformaldehyde for 20 min. Cells were incubated with IRDye 800 donkey anti-mouse IgG and nuclear marker DRAQ-5 (Thermo Fisher Scientific). Detection and quantitation were performed with the Odyssey Infrared Imager (Li-Cor Biosciences, Lincoln, NE, USA).
(§3) L6-GLUT4 myotubes overexpressing SHIP2 were treated and glucose uptake performed as described in C. […] Time point 15 min indicates the amount of HA detected on the cells after 15 min internalization.

[2] = target: T1, His-tagged human SHIP2 phosphatase domain (Homo sapiens, UniProt O15357); assay: Malachite green phosphate assay, recombinant SHIP2 phosphatase domain (High Throughput Biomedicine Unit, 384-well); format: biochemical; conditions: for inhibition at 100 µM: inhibitors at 100 µM concentration, read-out: SHIP2 Inhibition efficiency; for IC50: purified His-tagged phosphatase domain, 100 µM PI(3,4,5)P3
T1 construct: we produced a His-tagged human SHIP2 phosphatase domain; His; made in house
T1 sequence (O15357 419-732 limits assumed): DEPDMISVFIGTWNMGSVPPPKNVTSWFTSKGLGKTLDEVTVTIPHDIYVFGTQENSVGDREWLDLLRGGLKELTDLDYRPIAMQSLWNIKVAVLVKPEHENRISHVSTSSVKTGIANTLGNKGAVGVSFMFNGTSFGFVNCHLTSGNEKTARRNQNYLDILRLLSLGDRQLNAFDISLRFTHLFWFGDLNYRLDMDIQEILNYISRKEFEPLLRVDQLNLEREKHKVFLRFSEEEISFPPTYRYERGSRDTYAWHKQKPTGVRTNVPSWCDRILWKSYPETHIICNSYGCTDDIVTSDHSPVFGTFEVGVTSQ
Method: (§4) Recombinant His-tagged human SHIP2 and SHIP1 phosphatase domains were produced as previously described ([17]). […] Immunocomplexes were bound to protein G-Sepharose beads at +4°C for 2 h and washed 3 times with malachite green phosphate assay buffer {10 mM 4-(2-hydroxyethyl)-1-piperazineethanesulfonic acid (HEPES), pH 7.25, 6 mM MgCl2, 0.1% 3-[(3-cholamidopropyl)dimethylammonio]-1-propanesulfonate (CHAPS), 250 mM sucrose, and 0.25 mM EDTA}.
(§5) The catalytic activities of the recombinant SHIP2 and SHIP1 phosphatase domains were determined by malachite green phosphate assay at the High Throughput Biomedicine Unit (University of Helsinki) using D-myo-PI(3,4,5)P3 (Echelon Biosciences, Salt Lake City, UT, USA). Different volumes, resulting in desired final concentrations of inhibitors, were transferred to the wells of 384-well plates by using the Echo550 acoustic dispenser (Labcyte, San Jose, CA, USA). Recombinant protein (100 ng) in reaction buffer {10 mM HEPES, pH 7.25, 6 mM MgCl2, 0.1% CHAPS, 250 mM sucrose, and 0.25 mM EDTA} was placed in each well (7.5 µl), and the plates were preincubated at room temperature for 15 min. The phosphatase reaction was started by adding PI(3,4,5)P3 diluted in the reaction buffer (7.5 µl) to each well to reach a final concentration of 100 µM PI(3,4,5)P3 in the 15 µl reaction volume. The plates were incubated at room temperature for 20 min, after which, 15 µl BIOMOL green reagent (Biomol, Plymouth Meeting, PA, USA) was added to each well, and then the plates were incubated for another 25 min at room temperature. Absorbance was measured at 620 nm using a Pherastar FS plate reader (BMG Labtech, Offenburg, Germany). For the manual malachite green phosphate assay in 96-well plates [see Fig. 1; and activity measurement of phosphatase and tensin homolog (PTEN; Signalchem, Richmond, BC, Canada)], the reaction volume was increased to 50 µl, and 100 µl Biomol Green Reagent was added. The catalytic activity of SHIP2 immunoprecipitated from cell and tissue lysates was determined as in Saurus et al. ([22]), omitting SHIP2 inhibitors in lysis buffer, immunoprecipitation reaction, wash, and assay buffers. AS1949490 was synthesized, as described in Supplemental Fig. S1A, or purchased from Tocris Bioscience (Bristol, United Kingdom).

[3] = target: T2, His-tagged human SHIP1 phosphatase domain (Homo sapiens, UniProt Q92835); assay: Malachite green phosphate assay, recombinant SHIP1 phosphatase domain (High Throughput Biomedicine Unit); format: biochemical; conditions: for inhibition at 100 µM: inhibitors at 100 µM concentration, read-out: SHIP1 Inhibition efficiency; for IC50: purified His-tagged phosphatase domain
T2 construct: Recombinant His-tagged human SHIP2 and SHIP1 phosphatase domains were produced as previously described; His; made in house
T2 sequence (Q92835 399-715 limits assumed): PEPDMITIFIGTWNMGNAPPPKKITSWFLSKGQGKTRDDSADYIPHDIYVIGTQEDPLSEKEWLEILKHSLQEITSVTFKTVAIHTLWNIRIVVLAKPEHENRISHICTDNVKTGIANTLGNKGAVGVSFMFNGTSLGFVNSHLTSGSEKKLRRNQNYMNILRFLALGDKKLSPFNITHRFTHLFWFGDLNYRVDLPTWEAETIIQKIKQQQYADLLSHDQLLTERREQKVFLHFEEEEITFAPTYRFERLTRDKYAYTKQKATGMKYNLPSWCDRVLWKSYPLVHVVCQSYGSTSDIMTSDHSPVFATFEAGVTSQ
Method: as §4, §5

[4] = system: HA-GLUT4-GFP at the plasma membrane of L6-GLUT4 cells; assay: On-Cell Western and HA-GLUT4-GFP endocytosis assay in L6-GLUT4 cells; format: cell-based, rat; conditions: insulin 100 nM, 15 min
Method: as §2
C) Knockdown of SHIP2 reduces metformin-induced glucose uptake. […] L6-GLUT4 myotubes overexpressing SHIP2 were treated and glucose uptake performed as described in C. […] Time point 15 min indicates the amount of HA detected on the cells after 15 min internalization.

L6-GLUT4 myotubes = assay: Glucose uptake assay in L6-GLUT4 myotubes; format: cell-based, rat; conditions: insulin 100 nM, 15 min; serum-starved
Method: as §1, §2, §3

db/db mice = conditions: cited from earlier work

| inhibition at 100 µM [2] [%] | IC50 [2] [µM] | inhibition at 100 µM [3] [%] | IC50 [3] [µM] | Compound | also measured |
| --- | --- | --- | --- | --- | --- |
| – | – | – | – | NC(=O)c1ncn([C@@H]2O[C@H](CO)[C@@H](O)[C@H]2O)c1N [AICAR, 5-aminoimidazole-4-carboxamide ribonucleoside] | glucose uptake in podocytes ([1]; AICAR 1 mM, 20–24 h, alone): failed to increase; glucose uptake in podocytes, insulin combined with AICAR ([1]; AICAR 1 mM, 20–24 h plus insulin 200 nM, 15 min): failed to increase |
| 76.6 | 6.2 | 30 | 24.6 | CC(=O)O[C@]1(C(C)=O)CC[C@H]2[C@@H]3C=C(C)C4=CC(=O)CC[C@]4(C)[C@H]3CC[C@@]21C [Megestrol acetate, 17-(acetyloxy)-6-methylpregna-4,6-diene-3,20-dione] | – |
| 52.9 | 8.8 | 11.4 | 21.2 | Sc1ncnc2nc[nH]c12 [Mercaptopurine, 3,7-dihydropurine-6-thione] | – |
| 44.9 | 9 | 29.9 | > 50 | Nc1nc2nc[nH]c2c(=S)[nH]1 [Thioguanine, 2-Amino-1H-purine-6(7H)-thione] | – |
| – | – | – | – | Insulin: insulin used to stimulate cells (100 or 200 nM, 15 min) | decrease in amount of HA-GLUT4-GFP on the PM after 15 min uptake (endocytosis) [4]: 20%; increase in glucose uptake in L6-GLUT4 cells (L6-GLUT4 myotubes): 20%; glucose uptake in podocytes ([1]; insulin 200 nM, 15 min): did not respond |
| – | – | – | – | O=C(Cc1c(F)cccc1F)Nc1cc(OCc2ccc(Cl)cc2)ccn1 [N-[4-(4-chlorobenzyloxy)pyridin-2-yl]-2-(2,6-difluorophenyl)-acetamide] | PCK1 expression in db/db mice (db/db mice): reduce |
